Measured values as given in patent US20020137929A1, “1 - (3-heterocyclylphenyl) isothiourea, -isourea, -guanidine and -amidine herbicidal agents” (Intellectual Property Department, BASF Aktiengesellschaft, priority 1998, published 2002).

Key:
ORYSAT (Rice, Tebonnet) [1] = assay: Preemergence herbicidal evaluation; type: in vivo, Oryza sativa, (L.) Tebonnet; conditions: rated 4-5 weeks after treatment
Outline: (§1)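 In this greenhouse assay, monocot and dicot seeds are planted in soil and treated prior to emergence with an aqueous acetone spray (about 0.0156-0.500 kg/ha). Plants are assessed visually against control on a 0-9 scale after 4-5 weeks.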

ORYSAT (Rice, Tebonnet) [2] = assay: Postemergence herbicidal evaluation; type: in vivo, Oryza sativa, (L.) Tebonnet; conditions: postemergence
Outline: (§2)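 Two-week seedlings sprayed postemergence at 40 psi; formulation: 1:1 acetone/water, 0.5% TWEEN 20; application ≈0.0156–0.500 kg/ha. Greenhouse grow-out, then 0–9 visual scoring at 4–5 weeks.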

AMBEL (Ragweed, Common) = assay: Preemergence herbicidal evaluation; type: in vivo, Ambrosia artemisifolia; conditions: rated 4-5 weeks after treatment
Outline: as §1

[3] = test system: CHEAL (Lambsquarters, Common); assay: Postemergence herbicidal evaluation; type: in vivo, Chenopodium album; conditions: postemergence
Outline: as §2

CASOB (Sicklepod) = assay: Postemergence herbicidal evaluation; type: in vivo, Cassia obtusifolia; conditions: postemergence
Outline: as §2

GALAP (Galium) = assay: Postemergence herbicidal evaluation; type: in vivo, Galium aparine; conditions: postemergence
Outline: as §2

MOOVA (Monochoria) = assay: Preemergence weed control under flooded paddy conditions; type: in vivo, Monochoria vaginalis; conditions: rated 3-4 weeks after treatment
Outline: (§3)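 Silt loam, seeds in top 0.5 cm; flood held 1.5-3 cm; test cpd as acetone/water 50/50 into flood water, ~0.0313-0.500 kg/ha a.i.; greenhouse 3-4 wk; visual 0-9 score vs control.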

[4] = test system: GLXMAW (Soybean, Williams); assay: Preemergence herbicidal evaluation; type: in vivo, Glycine max, (L.) Merr. cv Williams; conditions: rated 4-5 weeks after treatment
Outline: as §1

SETVI (Foxtail, Green) = assay: Preemergence herbicidal evaluation; type: in vivo, Setaria viridis; conditions: rated 4-5 weeks after treatment
Outline: as §1

CYPSE (Flatsedge) = assay: Preemergence weed control under flooded paddy conditions; type: in vivo, Cyperus serotinus; conditions: rated 3-4 weeks after treatment
Outline: as §3

ZEAMX (Corn, Field) = assay: Postemergence herbicidal evaluation; type: in vivo, Zea mays; conditions: postemergence
Outline: as §2

CCOC(=O)CN1C(=O)C(OC)SC1=Nc1cc(-n2c(=O)cc(C(F)(F)F)n(C)c2=O)c(F)cc1Cl (stereo not shown) [Compound 160, Ethyl 2-{{2-chloro-5-[3,6-dihydro-3-methyl-2,6-dioxo-4-(trifluoromethyl)-1(2H)-pyrimidinyl]-4-fluorophenyl}imino}-5-methoxy-4-oxo-3-thiazolidineacetate]
Preemergence herbicidal rating ORYSAT (ORYSAT (Rice, Tebonnet) [1]; 0.0156 kg/ha): 0.0
Preemergence herbicidal rating ORYSAT (ORYSAT (Rice, Tebonnet) [1]; 0.0313 kg/ha): 0.0
Preemergence herbicidal rating ORYSAT (ORYSAT (Rice, Tebonnet) [1]; 0.0625 kg/ha): 1.0
Preemergence herbicidal rating ORYSAT (ORYSAT (Rice, Tebonnet) [1]; 0.1250 kg/ha): 1.0
Preemergence herbicidal rating ORYSAT (ORYSAT (Rice, Tebonnet) [1]; 0.2500 kg/ha): 7.0
Preemergence herbicidal rating ORYSAT (ORYSAT (Rice, Tebonnet) [1]; 0.5000 kg/ha): 8.0
Herbicidal rating ORYSAT (ORYSAT (Rice, Tebonnet) [2]; rate 0.0156 kg/ha): 2.0
Herbicidal rating ORYSAT (ORYSAT (Rice, Tebonnet) [2]; rate 0.0313 kg/ha): 3.5
Herbicidal rating ORYSAT (ORYSAT (Rice, Tebonnet) [2]; rate 0.0625 kg/ha): 4.5
Herbicidal rating ORYSAT (ORYSAT (Rice, Tebonnet) [2]; rate 0.1250 kg/ha): 4.5
Preemergence herbicidal rating AMBEL (AMBEL (Ragweed, Common); 0.0156 kg/ha): 7.0
Preemergence herbicidal rating AMBEL (AMBEL (Ragweed, Common); 0.0313 kg/ha): 6.0
Preemergence herbicidal rating AMBEL (AMBEL (Ragweed, Common); 0.0625 kg/ha): 9.0
Preemergence herbicidal rating AMBEL (AMBEL (Ragweed, Common); 0.1250 kg/ha): 9.0
Preemergence herbicidal rating AMBEL (AMBEL (Ragweed, Common); 0.2500 kg/ha): 9.0
Preemergence herbicidal rating AMBEL (AMBEL (Ragweed, Common); 0.5000 kg/ha): 9.0
Herbicidal rating CHEAL ([3]; rate 0.0156 kg/ha): 2.0
Herbicidal rating CHEAL ([3]; rate 0.0313 kg/ha): 6.0
Herbicidal rating CHEAL ([3]; rate 0.0625 kg/ha): 9.0
Herbicidal rating CHEAL ([3]; rate 0.1250 kg/ha): 9.0
Herbicidal rating CASOB (CASOB (Sicklepod); rate 0.0156 kg/ha): 0.0
Herbicidal rating CASOB (CASOB (Sicklepod); rate 0.0313 kg/ha): 0.0
Herbicidal rating CASOB (CASOB (Sicklepod); rate 0.0625 kg/ha): 1.0
Herbicidal rating CASOB (CASOB (Sicklepod); rate 0.1250 kg/ha): 4.0
Herbicidal rating GALAP (GALAP (Galium); rate 0.0156 kg/ha): 0.0
Herbicidal rating GALAP (GALAP (Galium); rate 0.0313 kg/ha): 0.0
Herbicidal rating GALAP (GALAP (Galium); rate 0.0625 kg/ha): 2.0
Herbicidal rating GALAP (GALAP (Galium); rate 0.1250 kg/ha): 4.0
herbicidal effect rating, MOOVA (MOOVA (Monochoria); 0.0313 kg/ha): 5.0
herbicidal effect rating, MOOVA (MOOVA (Monochoria); 0.0625 kg/ha): 6.0
herbicidal effect rating, MOOVA (MOOVA (Monochoria); 0.1250 kg/ha): 6.0
herbicidal effect rating, MOOVA (MOOVA (Monochoria); 0.2500 kg/ha): 7.0
Preemergence herbicidal rating GLXMAW ([4]; 0.0156 kg/ha): 1.0
Preemergence herbicidal rating GLXMAW ([4]; 0.0313 kg/ha): 1.0
Preemergence herbicidal rating GLXMAW ([4]; 0.0625 kg/ha): 1.0
Preemergence herbicidal rating GLXMAW ([4]; 0.1250 kg/ha): 2.0
Preemergence herbicidal rating GLXMAW ([4]; 0.2500 kg/ha): 9.0
Preemergence herbicidal rating GLXMAW ([4]; 0.5000 kg/ha): 9.0
Preemergence herbicidal rating SETVI (SETVI (Foxtail, Green); 0.0156 kg/ha): 0.0
Preemergence herbicidal rating SETVI (SETVI (Foxtail, Green); 0.0313 kg/ha): 1.0
Preemergence herbicidal rating SETVI (SETVI (Foxtail, Green); 0.0625 kg/ha): 7.0
Preemergence herbicidal rating SETVI (SETVI (Foxtail, Green); 0.1250 kg/ha): 7.0
Preemergence herbicidal rating SETVI (SETVI (Foxtail, Green); 0.2500 kg/ha): 7.0
Preemergence herbicidal rating SETVI (SETVI (Foxtail, Green); 0.5000 kg/ha): 9.0
herbicidal effect rating, CYPSE (CYPSE (Flatsedge); 0.0313 kg/ha): 3.0
herbicidal effect rating, CYPSE (CYPSE (Flatsedge); 0.0625 kg/ha): 3.0
herbicidal effect rating, CYPSE (CYPSE (Flatsedge); 0.1250 kg/ha): 3.0
herbicidal effect rating, CYPSE (CYPSE (Flatsedge); 0.2500 kg/ha): 3.0
Herbicidal rating ZEAMX (ZEAMX (Corn, Field); rate 0.0156 kg/ha): 6.5
Herbicidal rating ZEAMX (ZEAMX (Corn, Field); rate 0.0313 kg/ha): 7.0
Herbicidal rating ZEAMX (ZEAMX (Corn, Field); rate 0.0625 kg/ha): 7.0
Herbicidal rating ZEAMX (ZEAMX (Corn, Field); rate 0.1250 kg/ha): 7.5
